The target in this experiment is human GPR40 receptor (Homo sapiens, UniProt O14842). Briefly: IP1 accumulation measurements using the IPOne assay system. The class given is cell-based. As to conditions: 1321N1 cells stably expressing human GPR40; 1 h stimulation at 37° C. As to the method:
IP1 accumulation measurements using the IPOne assay system—1321N1 cells stably expressing human GPR40 receptor (Euroscreen, Belgium) are seeded 24 h before the assay in white 384-well plates in culture medium containing 10% FCS, 1% Na-Pyruvate and 400 μg/mL G418. IP1 is assayed according to the manufacturer's description (Cisbio Bioassays, France). In brief, the assay is started by substitution of the culture medium by stimulation buffer (Hepes 10 mM, CaCl2) 1 mM, MgCl2 0.5 mM, KCl 4.2 mM, NaCl 146 mM, glucose 5.5 mM and LiCl 50 mM, pH 7.4). Cells are stimulated for 1 h at 37° C., 5% CO2 by addition of the compounds that are diluted in stimulation buffer containing LiCl. Assays are stopped by adding HTRF-conjugates (IP1-d2 and Anti-IP1 cryptate Tb) and lysis buffer, provided by the manufacturer. After an incubation time of 1 h at room temperature plates are measured using an EnVision™, Perkin Elmer. The obtained fluorescence ratios at 665/615 […] are then used to calculate the pEC50 values using Assay Explorer 3.3 Software (Accelrys, Inc.) by interpolation using an IP1 reference curve and subsequent sigmoidal curve fitting allowing for a variable hill slope.
Chain of human GPR40 receptor (O14842 whole entry): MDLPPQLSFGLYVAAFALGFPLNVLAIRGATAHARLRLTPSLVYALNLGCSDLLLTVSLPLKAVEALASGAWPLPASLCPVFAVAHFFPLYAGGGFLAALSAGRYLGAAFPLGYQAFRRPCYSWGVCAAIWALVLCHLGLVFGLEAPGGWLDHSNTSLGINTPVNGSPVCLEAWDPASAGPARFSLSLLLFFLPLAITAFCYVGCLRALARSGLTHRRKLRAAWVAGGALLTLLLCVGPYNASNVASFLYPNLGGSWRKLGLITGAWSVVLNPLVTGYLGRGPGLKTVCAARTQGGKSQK
Turning to `Cc1cnc(-c2cc(C)c(-c3cccc(COc4ccc([C@H]5C[C@@H]5C(=O)O)nc4)c3)c(C)c2)nc1` [Example 2, (1S,2S)-2-{5-[2′,6′-Dimethyl-4′-(5-methyl-pyrimidin-2-yl)-biphenyl-3-ylmethoxy]-pyridin-2-yl}-cyclopropanecarboxylic Acid], the concentration giving a half-maximal response (EC50) – broadly, the midpoint of the concentration-response curve – was determined as 6 nM.

For `Cc1cc(-c2ccc(=O)n(C)c2)cc(C)c1-c1cccc(COc2ccc([C@H]3C[C@@H]3C(=O)O)nc2)c1` [Example 4, (1S,2S)-2-{5-[2′,6′-Dimethyl-4′-(1-methyl-6-oxo-1,6-dihydro-pyridin-3-yl)-biphenyl-3-ylmethoxy]-pyridin-2-yl}-cyclopropanecarboxylic Acid], the EC50 was 15 nM.

Molecule `Cc1cc(-c2cnccn2)cc(C)c1-c1cccc(COc2ccc([C@H]3C[C@@H]3C(=O)O)nc2)c1` [Example 5, (1S,2S)-2-[5-(2′,6′-Dimethyl-4′-pyrazin-2-yl-biphenyl-3-ylmethoxy)-pyridin-2-yl]-cyclopropanecarboxylic Acid] showed a 50% effective concentration (EC50) of 11 nM.

Turning to `Cc1cc(-c2nnn(CC(C)(C)O)n2)cc(C)c1-c1cccc(COc2ccc([C@H]3C[C@@H]3C(=O)O)nc2)c1` [Example 6, (1S,2S)-2-(5-{4′-[2-(2-Hydroxy-2-methyl-propyl)-2H-tetrazol-5-yl]-2′,6′-dimethyl-biphenyl-3-ylmethoxy}-pyridin-2-yl)-cyclopropanecarboxylic Acid], the EC50 was determined as 9 nM.

For `Cc1cc(-c2ccnn2C)cc(C)c1-c1cccc(COc2ccc([C@H]3C[C@@H]3C(=O)O)nc2)c1` [Example 7, (1S,2S)-2-{5-[2′,6′-Dimethyl-4′-(2-methyl-2H-pyrazol-3-yl)-biphenyl-3-ylmethoxy]-pyridin-2-yl}-cyclopropanecarboxylic Acid], the concentration for a half-maximal effect (EC50) was determined as 11 nM.

The molecule `COc1cc(-c2cc(C)c(-c3cccc(COc4ccc([C@H]5C[C@@H]5C(=O)O)nc4)c3)c(C)c2)ccn1` [Example 8, (1S,2S)-2-{5-[4′-(2-Methoxy-pyridin-4-yl)-2′,6′-dimethyl-biphenyl-3-ylmethoxy]-pyridin-2-yl}-cyclopropanecarboxylic Acid] displayed an EC50 of 6 nM.

The molecule `CCc1cccc(CC)c1-c1cccc(COc2ccc([C@H]3C[C@@H]3C(=O)O)nc2)c1` [Example 9, (1S,2S)-2-[5-(2′,6′-Diethyl-biphenyl-3-ylmethoxy)-pyridin-2-yl]-cyclopropane-carboxylic Acid] returned an EC50 of 62 nM.

As to `Cc1cc(OCC2CCOCC2)cc(C)c1-c1cccc(COc2ccc([C@H]3C[C@@H]3C(=O)O)nc2)c1` [Example 10, (1S,2S)-2-{5-[2′,6′-Dimethyl-4′-(tetrahydro-pyran-4-ylmethoxy)-biphenyl-3-ylmethoxy]-pyridin-2-yl}-cyclopropanecarboxylic Acid], the midpoint of the response, the EC50, lay at 23 nM.

Molecule `Cc1cc(OCC2CCCO2)cc(C)c1-c1cccc(COc2ccc([C@H]3C[C@@H]3C(=O)O)nc2)c1` (stereo partly drawn) [Example 11, (1S,2S)-2-{5-[2′,6′-Dimethyl-4′-(tetrahydro-furan-2-ylmethoxy)-biphenyl-3-ylmethoxy]-pyridin-2-yl}-cyclopropanecarboxylic Acid] showed a 50% effective concentration (EC50) of 32 nM.

In turn, `Cc1cc(O[C@H]2CCOC2)cc(C)c1-c1cccc(COc2ccc([C@H]3C[C@@H]3C(=O)O)nc2)c1` [Example 12, (1S,2S)-2-(5-{2′,6′-Dimethyl-4′-[(S)-(tetrahydrofuran-3-yl)oxy]-biphenyl-3-ylmethoxy}-pyridin-2-yl)-cyclopropanecarboxylic Acid] came in with an EC50 of 27 nM.

`Cc1cc(OC2CCOCC2)cc(C)c1-c1cccc(COc2ccc([C@H]3C[C@@H]3C(=O)O)nc2)c1` [Example 13, (1S,2S)-2-{5-[2′,6′-Dimethyl-4′-(tetrahydro-pyran-4-yloxy)-biphenyl-3-ylmethoxy]-pyridin-2-yl}-cyclopropanecarboxylic Acid] had an EC50 of 29 nM.

Regarding `COc1cc(C)c(-c2cccc(COc3ccc([C@H]4C[C@@H]4C(=O)O)nc3)c2)c(C)c1` [Example 14, (1S,2S)-2-[5-(4′-Methoxy-2′,6′-dimethyl-biphenyl-3-ylmethoxy)-pyridin-2-yl]-cyclopropanecarboxylic Acid], the EC50 worked out at 27 nM.
